Assay results from publication PMC7377239, “Cardiovascular Effects of Polychlorinated Biphenyls and Their Major Metabolites” (Environmental Health Perspectives, 2020).
Counter-ions that a name gives are not always drawn. Like-named read-outs stand apart in the source and are kept apart here.

Tested on: iCell cardiomyocytes (human iPSC-derived cardiomyocytes)
Experiment: Intracellular Ca2+ flux / beating parameters in iCell cardiomyocytes (FLIPR tetra), 90 min or 24 h
Assay type: cell-based
Details: Homo sapiens, Cardiomyocyte, 0.00 µM = 100.00; for activity at 0.1 µM: 0.10 µM
Summary of the method: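 PODs were defined as the concentration crossing one SD of the vehicle-control means (0.5% DMSO) on four-parameter logistic fits of Ca2+ trace metrics (peak height, frequency, peak-spacing CV, decay/rise ratio). Traces came from 100 s, 8 Hz FLIPR reads at 37 °C on calcium-dye-loaded iCell cardiomyocytes. Before reading, cells were treated for 90 min or 24 h from 5× chemical plates spanning 0.05–500 µM, in triplicate.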

[1] = 1.5 h, read-out: cm.amp.avg.90min
[2] = 1.5 h, read-out: cm.amp.cv.90min
[3] = 1.5 h, read-out: cm.decay.rise.90min
[4] = 1.5 h, read-out: cm.spacing.cv.90min
[5] = 24 h, read-out: cm.amp.avg.24hrs
[6] = 24 h, read-out: cm.amp.cv.24hrs
[7] = 24 h, read-out: cm.decay.rise.24hrs
[8] = 24 h, read-out: cm.spacing.cv.24hrs

O=S(=O)(O)Oc1ccc(-c2cccc(Cl)c2)cc1Cl [4-yl PCB 11 sulfate]
activity at 0.01 µM [1]: 98.2% | activity at 0.01 µM [2]: 88.2% | activity at 0.01 µM (1.5 h, read-out: cm.bpm.90min): 97.8% | activity at 0.01 µM [3]: 98.1% | activity at 0.01 µM [4]: 99.6% | activity at 0.1 µM [1]: 93.1% | activity at 0.1 µM [2]: 97.2% | activity at 0.1 µM (1.5 h, read-out: cm.bpm.90min): 100% | activity at 0.1 µM [3]: 102% | activity at 0.1 µM [4]: 99% | activity at 1 µM [1]: 99.5% | activity at 1 µM [2]: 116% | activity at 1 µM (1.5 h, read-out: cm.bpm.90min): 99.1% | activity at 1 µM [3]: 99.7% | activity at 1 µM [4]: 103% | activity at 10 µM [1]: 96.9% | activity at 10 µM [2]: 93.4% | activity at 10 µM (1.5 h, read-out: cm.bpm.90min): 99.1% | activity at 10 µM [3]: 98.1% | activity at 10 µM [4]: 96.5% | activity at 100 µM [1]: 45.7% | activity at 100 µM [2]: 62.5% | activity at 100 µM (1.5 h, read-out: cm.bpm.90min): 15.1% | activity at 100 µM [3]: 39.8% | activity at 100 µM [4]: 107% | activity at 0.01 µM [5]: 98.1% | activity at 0.01 µM [6]: 94.2% | activity at 0.01 µM (24 h, read-out: cm.bpm.24hrs): 97.4% | activity at 0.01 µM [7]: 110% | activity at 0.01 µM [8]: 104% | activity at 0.1 µM [5]: 78.9% | activity at 0.1 µM [6]: 34.3% | activity at 0.1 µM (24 h, read-out: cm.bpm.24hrs): 46.8% | activity at 0.1 µM [7]: 51.8% | activity at 0.1 µM [8]: 46.3% | activity at 1 µM [5]: 88.9% | activity at 1 µM [6]: 119% | activity at 1 µM (24 h, read-out: cm.bpm.24hrs): 93.6% | activity at 1 µM [7]: 100% | activity at 1 µM [8]: 87.1% | activity at 10 µM [5]: 88.7% | activity at 10 µM [6]: 119% | activity at 10 µM (24 h, read-out: cm.bpm.24hrs): 93.6% | activity at 10 µM [7]: 104% | activity at 10 µM [8]: 98.9% | activity at 100 µM [5]: 0% | activity at 100 µM [6]: 0% | activity at 100 µM (24 h, read-out: cm.bpm.24hrs): 0% | activity at 100 µM [7]: 0% | activity at 100 µM [8]: 0%
